Activity data for one compound are collected here from ChEMBL document CHEMBL2074525, “Screening of multidrug-resistance sensitive drugs by in situ brain perfusion in P-glycoprotein-deficient mice” (Pharm Res, 2001).

The target of the series is ATP-dependent translocase ABCB1 (Mus musculus, UniProt P21447). The experiment in a line: TP_TRANSPORTER: increase in blood-brain coefficient in mdr1a(-/-) mouse. To be noted: in vivo. Format: functional, organism-based.
ATP-dependent translocase ABCB1, sequence (P21447 whole entry): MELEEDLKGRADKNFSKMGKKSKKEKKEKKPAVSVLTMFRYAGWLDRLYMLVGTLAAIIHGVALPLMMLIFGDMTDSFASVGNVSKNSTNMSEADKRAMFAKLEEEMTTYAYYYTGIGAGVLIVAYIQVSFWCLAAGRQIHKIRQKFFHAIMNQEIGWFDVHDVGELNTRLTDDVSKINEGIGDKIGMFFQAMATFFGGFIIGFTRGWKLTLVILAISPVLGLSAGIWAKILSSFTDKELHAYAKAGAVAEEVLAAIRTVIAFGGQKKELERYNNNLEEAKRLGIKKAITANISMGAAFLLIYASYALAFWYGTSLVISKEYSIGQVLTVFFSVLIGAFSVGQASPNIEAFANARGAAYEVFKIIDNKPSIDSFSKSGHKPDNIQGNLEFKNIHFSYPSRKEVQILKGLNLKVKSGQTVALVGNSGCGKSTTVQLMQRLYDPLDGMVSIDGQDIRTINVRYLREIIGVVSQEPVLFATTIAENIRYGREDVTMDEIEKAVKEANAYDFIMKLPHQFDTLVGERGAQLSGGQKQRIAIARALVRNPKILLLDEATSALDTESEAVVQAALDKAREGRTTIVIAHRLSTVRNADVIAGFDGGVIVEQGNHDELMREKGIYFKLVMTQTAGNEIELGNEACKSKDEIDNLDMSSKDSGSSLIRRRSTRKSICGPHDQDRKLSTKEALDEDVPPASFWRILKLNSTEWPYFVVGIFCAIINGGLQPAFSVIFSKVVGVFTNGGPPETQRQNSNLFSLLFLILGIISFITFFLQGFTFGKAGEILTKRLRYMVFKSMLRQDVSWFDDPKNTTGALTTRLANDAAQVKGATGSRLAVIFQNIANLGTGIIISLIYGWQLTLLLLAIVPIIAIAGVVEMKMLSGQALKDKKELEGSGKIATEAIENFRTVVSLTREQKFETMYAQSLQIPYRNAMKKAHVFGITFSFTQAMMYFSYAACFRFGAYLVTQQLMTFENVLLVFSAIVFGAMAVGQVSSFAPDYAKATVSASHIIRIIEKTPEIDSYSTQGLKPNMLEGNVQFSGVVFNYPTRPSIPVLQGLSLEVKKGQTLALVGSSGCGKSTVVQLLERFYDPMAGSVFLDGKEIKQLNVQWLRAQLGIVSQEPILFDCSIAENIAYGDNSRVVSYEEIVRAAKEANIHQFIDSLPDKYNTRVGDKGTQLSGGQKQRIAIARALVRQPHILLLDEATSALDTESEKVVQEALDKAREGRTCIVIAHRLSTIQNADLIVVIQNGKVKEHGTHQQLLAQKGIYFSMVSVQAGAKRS

As for `COc1cccc2c1C(=O)c1c(O)c3c(c(O)c1C2=O)C[C@@](O)(C(=O)CO)C[C@@H]3O[C@H]1C[C@H](N)[C@H](O)[C@H](C)O1` [DOXORUBICIN], the Activity result is “substrate [+]”.
